# Key:
# PARP2 = PARP2 (Homo sapiens (Human), UniProt Q9UGN5); test: PARP2 protein expression level in MDA-MB-436 cells; type: cell-based
# Method: MDA-MB-436 cells were placed in a complete L-15 medium (supplemented with 15% FBS; 10 μg/mL Insulin; 16 μg/mL Glutathione and 1% penicillin-streptomycin solution), and cultured at 37° C. under CO2-free conditions. The cells in the logarithmic growth phase were collected, the cell density was adjusted to 2×10^5 cells/well with the culture medium, and the cells were added to a 6-well cell culture plate at a volume of 1 mL/well and cultured overnight. On day 2, the compound to be tested was prepared to 2-fold the final concentration, 1 mL of the compounds at different concentrations were added to administration wells, a medium containing 0.2% DMSO was added to control wells, and the plate was incubated for 24 hours at 37° C. […] The supernatant was collected and the protein content was determined using the BCA method. The protein sample to be tested was diluted to 2 mg/mL, PARP2 was detected using a fully automated protein expression quantitative analyzer (ProteinSimple), and the internal reference protein was 3-actin (both antibodies were from CST). The software (Compass for SW) of the fully automated protein expression quantitative analyzer was used to process the raw data and calculate the peak area and the PARP2 expression rate relative to the control group. DC50 values were calculated using a four-parameter non-linear fitting model in Graphpad 8.3.0 software.
# [1] = test system: Human breast cancer MDA-MB-436 cells; test: Mouse MDA-MB-436 subcutaneous in vivo transplanted tumor model; settings: for TGI: after 28 days of administration
# Method: Human breast cancer MDA-MB-436 cells were placed in Leibovitz's L-15 medium (supplemented with 10 μg/mL insulin, 16 μg/mL glutathione, 10% fetal bovine serum and 1% penicillin-streptomycin solution) and cultured at 37° C. Conventional digestion treatment with trypsin was performed twice a week for passage. When the cell saturation was 80%-90%, and the number reached the requirement, the cells were harvested, counted, and inoculated. BALB/c nude mice (from Beijing Vital River Laboratory Animal Technology Co., Ltd.) were subcutaneously inoculated with 0.2 mL (10×10^6) of MDA-MB-436 cells (plus matrigel, with the volume ratio of 1:1) on the right back. When the average tumor volume reached about 180 mm^3, grouping and administration were performed (marked as Day 0). The solvent group was given 5% DMSO, 30% PEG400 and 65% of 20% sulfobutyl-β-cyclodextrin solution, and the administration group was given 1 or 10 mg/kg compound 10. The administration frequency was once a day, the administration cycle was 29 days, and the drug withdrawal observation period was set to 14 days. After grouping, the tumor diameter was measured twice a week with a vernier caliper. The formula for calculating the tumor volume was: V=0.5×a×b^2, where a and b represented the long and short diameters of the tumor, respectively. […] The tumor growth curve and the animal body weight change curve were as shown in FIG. 1 and FIG. 2, respectively.
# PARP2, sequence (Q9UGN5 whole entry): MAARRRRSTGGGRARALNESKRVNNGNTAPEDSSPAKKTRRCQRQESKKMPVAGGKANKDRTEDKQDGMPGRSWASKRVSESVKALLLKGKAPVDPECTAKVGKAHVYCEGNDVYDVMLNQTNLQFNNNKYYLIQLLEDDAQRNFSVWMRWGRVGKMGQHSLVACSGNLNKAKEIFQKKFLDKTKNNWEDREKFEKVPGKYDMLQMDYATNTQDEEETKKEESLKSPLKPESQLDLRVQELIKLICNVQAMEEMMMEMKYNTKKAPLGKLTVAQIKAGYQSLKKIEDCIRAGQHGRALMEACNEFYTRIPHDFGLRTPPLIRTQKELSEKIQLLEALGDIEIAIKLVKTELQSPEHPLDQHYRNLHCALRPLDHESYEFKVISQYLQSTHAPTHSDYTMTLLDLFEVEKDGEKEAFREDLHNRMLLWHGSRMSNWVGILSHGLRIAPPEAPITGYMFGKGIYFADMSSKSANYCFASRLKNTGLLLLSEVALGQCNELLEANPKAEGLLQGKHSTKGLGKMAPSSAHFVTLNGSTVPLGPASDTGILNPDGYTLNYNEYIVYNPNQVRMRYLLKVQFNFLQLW
smiles,measurement,setting,value
"CCc1cc2ncc(CN3CCN(c4ccc(C(=O)NC5CCN(c6ccc7c(c6)C(=O)N(C6CCC(=O)NC6=O)C7=O)CC5)nc4)CC3)cc2[nH]c1=O (stereo not drawn) [Compound 10, N-(1-(2-(2,6-dioxopiperidin-3-yl)-1,3-dioxoisoindolin-5-yl)piperidin-4-yl)-5-(4-((7-ethyl-6-oxo-5,6-dihydro-1,5-naphthyridin-3-yl)methyl)piperazin-1-yl)picolinamide]",PARP1 degradation selectivity over PARP2,PARP2,good PARP1 degradation selectivity
same,DC50,PARP2; 24 hours,> 10000 nM
same,tumor growth after drug withdrawal,"[1]; 1 mg/kg group, 14 days withdrawal observation",continued to grow
same,TGI,[1]; 1 mg/kg once a day,47.14%
same,tumor volume after drug withdrawal,"[1]; 10 mg/kg group, 14 days withdrawal observation",consistently smaller than the tumor volume at the time of grouping
same,TGI,[1]; 10 mg/kg once a day,111%
same,body weight of the animals,[1]; 1 or 10 mg/kg once a day,no significant decrease in the body weight
same,efficacy in inhibiting tumor growth,[1]; mouse MDA-MB-436 model,good efficacy in inhibiting tumor growth and inducing tumor regression
same,tolerability,[1]; mouse MDA-MB-436 model,well tolerated

# Source: patent publication US20250222116A1, “PARP-1 DEGRADATION AGENT AND USE THEREOF” (XIZANG HAISCO PHARMACEUTICAL CO., LTD., priority 2021, published 2025)
